Data as given in PMC8595653, “Activation of specific bitter taste receptors by olive oil phenolics and secoiridoids” (Scientific Reports, 2021).
Entries after “also recorded” stand apart in the source; their conditions may differ.

Tests used:
[1] = biological target: T1, TAS2R8 (Homo sapiens, UniProt Q9NYW2); test: Calcium mobilization functional assay, TAS2R8 co-expressed with Gα16-gust44 and GCaMP in HEK293E cells; type: cell-based; settings: for times more potent than oleuropein: potency of bitter receptor activation relative to oleuropein (1); for potency and efficacy on TAS2R8 in words: concentration-response experiments, maximal concentration 10 mM for oleuropein
T1 construct: first 45 amino acids of rat somatostatin type 3 receptor (SSTR3) export tag (N); expressed in transfected cells; host or cells: HEK293E
T1 sequence (Q9NYW2 1-309): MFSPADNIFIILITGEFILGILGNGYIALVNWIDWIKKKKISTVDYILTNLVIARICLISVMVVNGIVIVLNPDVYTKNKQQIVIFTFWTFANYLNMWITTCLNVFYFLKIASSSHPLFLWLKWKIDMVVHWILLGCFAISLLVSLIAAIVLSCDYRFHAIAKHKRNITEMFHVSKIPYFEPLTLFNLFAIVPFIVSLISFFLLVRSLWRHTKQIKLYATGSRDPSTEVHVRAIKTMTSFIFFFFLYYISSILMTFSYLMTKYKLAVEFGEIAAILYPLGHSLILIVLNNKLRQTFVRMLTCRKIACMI
Method: (§1) All constructs were confirmed by DNA sequencing.
(§2) Data from single dose experiments were collected as duplicates. […] Data represent mean ± SD.
(§3) To characterize the bitterness of olive oil phenolic compounds, we performed calcium mobilization experiments. The 25 bitter taste receptors, G protein chimera (Gα16-gus44), and the GCaMP calcium sensor[68] were transiently expressed in HEK293E cells. Twelve olive oil phenolic compounds (Fig. 1) were tested for bitter taster receptor activation (Fig. 3). […] Ligstroside aglycon, and Oleuropein aglycon activated TAS2R1, TAS2R8 and TAS2R14 receptors. To validate the single dose scanning results, we performed concentration–response experiments for all the compounds toward receptors TAS2R1, TAS2R8, and TAS2R14 that produced the most significant responses (Fig. 4).

[2] = biological target: T2, TAS2R1 (Homo sapiens, UniProt Q9NYW7); test: Calcium mobilization functional assay, TAS2R1 co-expressed with Gα16-gust44 and GCaMP in HEK293E cells; type: cell-based
T2 construct: first 45 amino acids of rat somatostatin type 3 receptor (SSTR3) export tag (N); expressed in transfected cells; host or cells: HEK293E
T2 sequence (Q9NYW7 1-299): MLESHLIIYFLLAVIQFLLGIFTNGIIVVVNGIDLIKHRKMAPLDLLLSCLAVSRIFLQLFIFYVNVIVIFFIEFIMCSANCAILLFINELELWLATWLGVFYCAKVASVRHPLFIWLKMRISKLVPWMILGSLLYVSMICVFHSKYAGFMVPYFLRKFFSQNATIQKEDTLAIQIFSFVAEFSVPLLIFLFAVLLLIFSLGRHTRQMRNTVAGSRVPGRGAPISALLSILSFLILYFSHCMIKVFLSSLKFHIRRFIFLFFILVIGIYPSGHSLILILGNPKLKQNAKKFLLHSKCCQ
Method: as §1, §2, §3

[3] = biological target: T3, TAS2R14 (Homo sapiens, UniProt Q9NYV8); test: Calcium mobilization functional assay, TAS2R14 co-expressed with Gα16-gust44 and GCaMP in HEK293E cells; type: cell-based
T3 construct: first 45 amino acids of rat somatostatin type 3 receptor (SSTR3) export tag (N); expressed in transfected cells; host or cells: HEK293E
T3 sequence (Q9NYV8 1-317): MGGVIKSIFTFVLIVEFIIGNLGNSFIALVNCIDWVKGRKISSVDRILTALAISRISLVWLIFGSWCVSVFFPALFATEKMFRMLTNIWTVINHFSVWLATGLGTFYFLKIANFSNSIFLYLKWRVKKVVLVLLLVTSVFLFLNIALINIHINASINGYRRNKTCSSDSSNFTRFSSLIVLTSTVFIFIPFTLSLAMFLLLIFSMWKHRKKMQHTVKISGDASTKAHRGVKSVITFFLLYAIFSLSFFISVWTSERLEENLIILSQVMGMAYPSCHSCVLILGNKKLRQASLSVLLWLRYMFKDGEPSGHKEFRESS
Method: as §1, §2, §3

[4] = system: 25 human TAS2Rs; test: Single dose scanning of phenolic compounds on the 25 bitter taste receptors (calcium mobilization, HEK293E); type: cell-based; settings: single dose 300 µM, 25 TAS2Rs, N = 2
Method: as §1, §2, §3
Figure 3 Phenolic compound bitter taste activity tests on hTAS2Rs. Relative fluorescence signals caused by phenolic compound activation of the receptors and the empty vector as a negative control. The concentration of the compounds used was [300 µM], except for Ligstroside aglycon and Oleuropein aglycon [200 µM], oleuropein that was [3 mM]. The asterisks indicate significant differences tested by one-way ANOVA (***p < 0.0001) (N = 2). Data represent mean ± SD.

[5] = biological target: TAS2R38 (Homo sapiens, UniProt P59533); settings: 1 mM, versus empty pcDNA vector
Chain of TAS2R38 (P59533 whole entry): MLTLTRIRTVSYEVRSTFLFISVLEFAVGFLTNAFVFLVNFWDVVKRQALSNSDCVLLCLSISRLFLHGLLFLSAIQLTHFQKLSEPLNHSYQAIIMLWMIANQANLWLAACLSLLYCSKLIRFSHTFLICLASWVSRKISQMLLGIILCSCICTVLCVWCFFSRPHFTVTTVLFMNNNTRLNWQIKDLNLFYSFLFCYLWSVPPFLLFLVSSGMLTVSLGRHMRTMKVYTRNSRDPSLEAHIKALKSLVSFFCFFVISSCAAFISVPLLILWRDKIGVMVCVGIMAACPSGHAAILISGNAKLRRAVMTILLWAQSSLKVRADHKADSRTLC
Method: (§4) 25 human TAS2R genes were subcloned into the pcDNA 3.1 vector, as previously descripted in the literature[44],[53]. The first 45 amino acids of the rat somatostatin type 3 receptor, which serves as a cell-surface-targeting signal, were added to the N-termini of the TAS2Rs to target them more efficiently to the cell surface. Herpes simplex virus (HSV) glycoprotein D epitopes were added to the carboxy termini of the receptors for immunocytochemistry. All constructs were confirmed by DNA sequencing.
(§5) HEK293E cells were cultured at 37 °C in DMEM (Thermo Fisher Scientific), supplemented with 10% fetal bovine serum (FBS) and 1% Penicillin Streptomycin. The cells were seeded onto 96-well plates (Clear Bottom Black Polystyrene Poly-D-Lysine Coated Microplates, Corning life sciences) at a density of 50,000 (in 100 μl DMEM) per well, and cultured at 37 °C for overnight. On the second day following seeding, the medium was changed to OPTI-MEM supplemented with 5% FBS (filtered) before co-transfection using Polyethylenimine (PEI) (1.6 μg/well) with plasmid DNAs encoding TAS2Rs (0.1 μg/well), Gα16-gust44 (0.06 μg/well) and the GCaMP calcium sensor (0.035 μg/well). After 24 h, the medium was changed to fresh OPTI-MEM supplemented with 5% FBS (filtered) and 0.1% Plasmocin (InvivoGen). […]

[6] = biological target: T4, TAS2R50 (Homo sapiens, UniProt P59544); test: Calcium mobilization functional assay, TAS2R50; type: cell-based; settings: 1 mM, versus empty pcDNA vector
T4 construct: first 45 amino acids of rat somatostatin type 3 receptor (SSTR3) export tag (N); expressed in transfected cells; host or cells: HEK293E
T4 sequence (P59544 whole entry): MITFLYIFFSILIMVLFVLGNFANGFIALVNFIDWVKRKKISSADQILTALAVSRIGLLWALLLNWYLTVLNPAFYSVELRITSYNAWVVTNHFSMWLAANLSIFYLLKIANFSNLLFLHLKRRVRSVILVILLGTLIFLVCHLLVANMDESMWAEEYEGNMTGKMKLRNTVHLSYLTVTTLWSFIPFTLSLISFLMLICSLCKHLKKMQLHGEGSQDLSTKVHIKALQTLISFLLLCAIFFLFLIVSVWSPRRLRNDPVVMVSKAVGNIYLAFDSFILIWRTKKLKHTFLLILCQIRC
From the text: as §1, §2

[7] = biological target: T5, TAS2R43 (Homo sapiens, UniProt P59537); test: Calcium mobilization functional assay, TAS2R43; type: cell-based; settings: 30 µM, versus empty pcDNA vector
T5 construct: first 45 amino acids of rat somatostatin type 3 receptor (SSTR3) export tag (N); expressed in transfected cells; host or cells: HEK293E
T5 sequence (P59537 whole entry): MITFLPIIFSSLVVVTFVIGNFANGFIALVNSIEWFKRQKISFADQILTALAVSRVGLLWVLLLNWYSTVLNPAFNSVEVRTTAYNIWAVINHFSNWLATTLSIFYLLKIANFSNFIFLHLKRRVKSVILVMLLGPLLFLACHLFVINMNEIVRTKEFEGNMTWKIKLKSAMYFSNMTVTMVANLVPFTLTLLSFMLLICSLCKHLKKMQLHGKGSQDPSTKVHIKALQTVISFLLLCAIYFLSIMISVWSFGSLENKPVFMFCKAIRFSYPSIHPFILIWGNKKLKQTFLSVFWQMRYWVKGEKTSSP
From the text: as §1, §2

[8] = biological target: T6, TAS2R31 (Homo sapiens, UniProt P59538); test: Calcium mobilization functional assay, TAS2R31; type: cell-based; settings: 30 µM, versus empty pcDNA vector
T6 construct: first 45 amino acids of rat somatostatin type 3 receptor (SSTR3) export tag (N); expressed in transfected cells; host or cells: HEK293E
T6 sequence (P59538 whole entry): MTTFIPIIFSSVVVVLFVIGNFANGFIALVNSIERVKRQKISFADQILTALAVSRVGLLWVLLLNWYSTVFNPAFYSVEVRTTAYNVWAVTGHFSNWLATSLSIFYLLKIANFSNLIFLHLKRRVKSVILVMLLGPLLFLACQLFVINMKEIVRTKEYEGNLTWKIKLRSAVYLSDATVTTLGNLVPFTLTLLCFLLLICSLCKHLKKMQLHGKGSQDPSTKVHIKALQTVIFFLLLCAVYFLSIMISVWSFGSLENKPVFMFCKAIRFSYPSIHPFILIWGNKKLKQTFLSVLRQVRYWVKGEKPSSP
From the text: as §1, §2

[9] = biological target: T7, TAS2R20 (Homo sapiens, UniProt P59543); test: Calcium mobilization functional assay, TAS2R20 (RTP3 and RTP4 co-expressed); type: cell-based; settings: 10 mM, versus empty pcDNA vector
T7 construct: first 45 amino acids of rat somatostatin type 3 receptor (SSTR3) export tag (N); expressed in transfected cells; host or cells: HEK293E
T7 sequence (P59543 whole entry): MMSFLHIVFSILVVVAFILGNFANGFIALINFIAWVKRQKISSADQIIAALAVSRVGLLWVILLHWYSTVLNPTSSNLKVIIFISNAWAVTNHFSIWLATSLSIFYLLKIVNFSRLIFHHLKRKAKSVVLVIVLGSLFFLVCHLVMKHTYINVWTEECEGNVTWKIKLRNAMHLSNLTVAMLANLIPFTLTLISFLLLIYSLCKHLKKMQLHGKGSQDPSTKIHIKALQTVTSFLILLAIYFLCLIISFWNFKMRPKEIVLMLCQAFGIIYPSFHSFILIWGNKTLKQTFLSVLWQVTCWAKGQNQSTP
From the text: as §1, §2

[10] = biological target: T8, TAS2R30 (Homo sapiens, UniProt P59541); test: Calcium mobilization functional assay, TAS2R30; type: cell-based; settings: 300 µM, versus empty pcDNA vector
T8 construct: first 45 amino acids of rat somatostatin type 3 receptor (SSTR3) export tag (N); expressed in transfected cells; host or cells: HEK293E
T8 sequence (P59541 whole entry): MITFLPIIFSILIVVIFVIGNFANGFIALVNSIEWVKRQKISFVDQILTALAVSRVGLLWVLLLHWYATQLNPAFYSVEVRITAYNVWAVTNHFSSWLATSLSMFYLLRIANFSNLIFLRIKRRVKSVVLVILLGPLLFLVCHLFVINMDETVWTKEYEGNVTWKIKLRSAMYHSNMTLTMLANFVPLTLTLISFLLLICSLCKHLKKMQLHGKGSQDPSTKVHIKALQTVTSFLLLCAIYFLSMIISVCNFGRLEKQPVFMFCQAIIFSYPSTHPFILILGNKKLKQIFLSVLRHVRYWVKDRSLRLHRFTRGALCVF
From the text: as §1, §2

[11] = biological target: T9, TAS2R40 (Homo sapiens, UniProt P59535); test: Calcium mobilization functional assay, TAS2R40; type: cell-based; settings: 30 µM, versus empty pcDNA vector
T9 construct: first 45 amino acids of rat somatostatin type 3 receptor (SSTR3) export tag (N); expressed in transfected cells; host or cells: HEK293E
T9 sequence (P59535 whole entry): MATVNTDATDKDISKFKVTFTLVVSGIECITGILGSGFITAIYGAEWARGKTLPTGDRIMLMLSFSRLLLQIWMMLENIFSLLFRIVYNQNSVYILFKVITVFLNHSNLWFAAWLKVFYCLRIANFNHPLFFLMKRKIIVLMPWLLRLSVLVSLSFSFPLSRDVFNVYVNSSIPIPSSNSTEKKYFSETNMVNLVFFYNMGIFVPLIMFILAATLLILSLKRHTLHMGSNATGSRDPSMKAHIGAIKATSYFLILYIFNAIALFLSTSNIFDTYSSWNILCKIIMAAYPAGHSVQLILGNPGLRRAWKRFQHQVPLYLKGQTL
From the text: as §1, §2

[12] = biological target: T10, TAS2R39 (Homo sapiens, UniProt P59534); test: Calcium mobilization functional assay, TAS2R39; type: cell-based; settings: 10 mM, versus empty pcDNA vector
T10 construct: first 45 amino acids of rat somatostatin type 3 receptor (SSTR3) export tag (N); expressed in transfected cells; host or cells: HEK293E
T10 sequence (P59534 whole entry): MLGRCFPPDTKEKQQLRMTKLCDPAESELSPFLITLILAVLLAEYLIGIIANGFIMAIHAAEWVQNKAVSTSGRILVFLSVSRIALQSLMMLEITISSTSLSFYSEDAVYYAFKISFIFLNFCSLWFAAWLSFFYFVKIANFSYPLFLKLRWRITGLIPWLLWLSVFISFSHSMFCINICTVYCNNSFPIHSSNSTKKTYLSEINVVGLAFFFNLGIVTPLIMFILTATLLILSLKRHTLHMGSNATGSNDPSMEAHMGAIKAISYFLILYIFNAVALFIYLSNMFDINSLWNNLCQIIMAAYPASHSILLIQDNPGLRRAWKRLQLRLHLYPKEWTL
From the text: as §1, §2

[13] = biological target: TAS2R46 (Homo sapiens, UniProt P59540); settings: 300 µM, versus empty pcDNA vector
Chain of TAS2R46 (P59540 whole entry): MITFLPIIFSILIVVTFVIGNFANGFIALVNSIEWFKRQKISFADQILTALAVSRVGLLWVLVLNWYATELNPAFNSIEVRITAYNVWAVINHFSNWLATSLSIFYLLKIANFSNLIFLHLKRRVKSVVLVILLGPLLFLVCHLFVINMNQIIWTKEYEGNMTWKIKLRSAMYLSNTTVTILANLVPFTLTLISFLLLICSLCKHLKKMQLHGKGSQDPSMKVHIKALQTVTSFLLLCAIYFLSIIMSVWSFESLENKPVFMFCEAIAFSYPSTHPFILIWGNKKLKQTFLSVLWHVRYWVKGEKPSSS
Method: as §4, §5

[14] = HEK293E, normalized to the highest response of TAS2R8 to oleuropein aglycon (100%), N = 3

COC(=O)C1=COC(C)C(C=O)C1CC(=O)OCCc1ccc(O)c(O)c1 (single isomer, unassigned; isomer a) [Oleuropein aglycon closed-type (5a), oleuropein aglycon closed-type (isomer A)]
times more potent than oleuropein [1]: ~50 times

COC(=O)C1=COC(C)C(C=O)C1CC(=O)OCCc1ccc(O)c(O)c1 (single isomer, unassigned; isomer b) [Oleuropein aglycon (5b), oleuropein aglycon closed-type (isomer B)]
Emax [2, 14]: 67.6%
EC50 ([2]; dose-response, N = 3, HEK293E): 142 µM
activation of TAS2R1 ([2]; single dose 200 µM): activated
potency and efficacy on TAS2R14 in words ([3]; concentration-response experiments, compared with ligstroside aglycon): even less potent and efficacious
activation of TAS2R14 ([3]; single dose 200 µM): activated
Emax [1, 14]: 100%
EC50 ([1]; dose-response, N = 3, HEK293E): 57.3 µM
times more potent than oleuropein [1]: ~50 times
activation of TAS2R8 ([1]; single dose 200 µM): activated

COC(=O)C1=COC(C)C(C=O)C1CC(=O)O (stereo not shown) [Elenolic acid, elenolic acid]
potency and efficacy on TAS2R8 in words [1]: activated weakly and less potently; also recorded: activated TAS2R8 with lower potency
activation of TAS2R8 over background ([1]; single dose 300 µM): activate
activation of TAS2R8 over background ([1]; single dose 300 µM, listed as elenolic acid): activated significantly

OCCc1ccc(O)c(O)c1 [Hydroxytyrosol, hydroxytyrosol]
activation of any TAS2R [4]: failed to activate any bitter receptor

C/C=C(/C=O)[C@@H](CC=O)CC(=O)OCCc1ccc(O)c(O)c1 [Oleacein, oleacein]
activation of any TAS2R [4]: did not activate any TAS2Rs; also recorded: did not show any activation of bitter receptors; also recorded: failed to activate any TAS2Rs

C/C=C(/C=O)[C@@H](CC(=O)O)CC(=O)OCCc1ccc(O)cc1 [Oleocanthalic acid, oleocanthalic acid]
potency and efficacy on TAS2R8 in words [1]: activated TAS2R8 with lower potency
potency and efficacy on TAS2R8 in words ([1]; listed as oleocanthalic acid): activated weakly and less potently
activation of TAS2R8 over background ([1]; single dose 300 µM): activate
activation of TAS2R8 over background ([1]; single dose 300 µM, listed as oleocanthalic acid): activated significantly

C/C=C(/C=O)C(CC(=O)OCCc1ccc(O)c(O)c1)/C(=C/O)C(=O)OC (stereo not shown) [Oleomissional, oleomissional]
potency and efficacy on TAS2R8 in words [1]: activated weakly and less potently
potency and efficacy on TAS2R8 in words ([1]; listed as oleomissinal): activated TAS2R8 with lower potency
activation of TAS2R8 over background ([1]; single dose 300 µM): activate
activation of TAS2R8 over background ([1]; single dose 300 µM, listed as oleomissional): activated significantly

CC=C1C(OC2OC(CO)C(O)C(O)C2O)OC=C(C(=O)OC)C1CC(=O)O (stereo not shown) [Oleoside-methylester, oleoside-11-methylester]
activation of any TAS2R ([4]; listed as oleoside-11-methyl ester): failed to activate any bitter receptor
activation of any TAS2R ([4]; listed as oleoside-methylester): did not activate any TAS2Rs; also recorded: failed to activate any TAS2Rs

C/C=C1/[C@H](O[C@@H]2O[C@H](CO)[C@@H](O)[C@H](O)[C@H]2O)OC=C(C(=O)OC)[C@H]1CC(=O)OCCc1ccc(O)c(O)c1 [Oleuropein, oleuropein]
potency lower compared to the aglycons ([1]; TAS2R8): 50 fold
potency and efficacy on TAS2R8 in words [1]: high efficacy on TAS2R8 but very low potency and did not reach saturation
activation of TAS2R8 over background ([1]; single dose 3 mM): activate; also recorded: activated TAS2R8 only
activation of TAS2R8 over background ([1]; single dose 3 mM, listed as oleuropein): activated significantly

CCCc1cc(=O)[nH]c(=S)[nH]1 [PROP, 6-n-propylthiouracil]
activation of TAS2R38 [5]: activated

OCCc1ccc(O)cc1 [Tyrosol, tyrosol]
activation of any TAS2R [4]: did not activate any TAS2Rs; also recorded: failed to activate any bitter receptor; also recorded: failed to activate any TAS2Rs

C=C1CC[C@@H]2[C@](C)(CO)[C@H](O)CC[C@@]2(C)[C@@H]1C/C=C1/C(=O)OC[C@H]1O [andrographolide]
activation of TAS2R50 [6]: activated

COc1cccc2c1cc([N+](=O)[O-])c1c(C(=O)O)cc3c(c12)OCO3 [aristolochic acid]
activation of TAS2R43 [7]: activated
activation of TAS2R31 [8]: activated

O=C(O)c1cc(=O)c2c(OCC(O)COc3cccc4oc(C(=O)O)cc(=O)c34)cccc2o1 [cromolyn]
activation of TAS2R20 [9]: activated

CC[N+](CC)(CC(=O)Nc1c(C)cccc1C)Cc1ccccc1 [denatonium, denatonium benzoate]
activation of TAS2R30 [10]: activated

O=C(O)c1ccccc1Nc1cccc(C(F)(F)F)c1 [flufenamic acid, reference compound]
activation of TAS2R14 ([3]; 0.3 mM, versus empty pcDNA vector): activated

CC(C)=CCC1C(=O)C(C(=O)CC(C)C)=C(O)C(O)(CC=C(C)C)C1=O (stereo not shown) [humulone]
activation of TAS2R40 [11]: activated

CNC(=C[N+](=O)[O-])NCCSCc1ccc(CN(C)C)o1 [ranitidine]
activation of TAS2R39 [12]: activated

O=C1C[C@@H]2OCC=C3CN4CC[C@]56c7ccccc7N1[C@H]5[C@H]2[C@H]3C[C@H]46 [strychnine]
activation of TAS2R46 [13]: activated
